Measured values as given in the supplement of paper PMC10307832.

How the values were obtained:
Assay in all cases: relative viability (nuclei count vs DMSO), 5 days (fraction); higher = more cells survive
[1] = compound: CN(C/C=C/C1=CC=C(C=C1)Cl)CC2=CC=CC=C2N(CCO)S(=O)(=O)C3=CC=C(C=C3)OC [KN-93]
Procedure, shortened: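 Lung cancer cell lines received five library-drug doses (not always all listed) spaced by √10, pinned on vehicle-anchored 1536-well plates after an overnight stay at 37 °C. Five days later, with no medium change, nuclei were Hoechst-stained, imaged at 4× and counted with MetaXpress. Viability is treated-well nuclei relative to vehicle-well nuclei, as a median across plates. Passing plates had control CV below 25% and at least one doubling.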

[2] = compound: CN(C/C=C/C1=CC=C(C=C1)Cl)CC2=CC=CC=C2N(CCO)S(=O)(=O)C3=CC=C(C=C3)OC [KN-93] + CC1(C)CCC(c2ccc(Cl)cc2)=C(CN2CCN(c3ccc(C(=O)NS(=O)(=O)c4ccc(N[C@H](CCN5CCOCC5)CSc5ccccc5)c(S(=O)(=O)C(F)(F)F)c4)cc3)CC2)C1 [Navitoclax] (partner 0.5 µM)
Procedure, shortened: (§1)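 Relative viability was taken as the ratio of nuclei in treated wells to nuclei in vehicle wells. Lung cancer cell lines in 1536-well plates received compounds by pin tool one day after seeding, either one drug alone or a fixed anchor-drug dose plus five library-drug doses (not always all listed) in √10 steps. Nuclei were counted on 4× images after 5 days of treatment, and values are medians of duplicate plates.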

[3] = compound: CN(C/C=C/C1=CC=C(C=C1)Cl)CC2=CC=CC=C2N(CCO)S(=O)(=O)C3=CC=C(C=C3)OC [KN-93] + C[C@@H](Oc1cc(-c2cnn(C3CCNCC3)c2)cnc1N)c1c(Cl)ccc(F)c1Cl [Crizotinib] (partner 1 µM)
Procedure, shortened: as §1

[4] = compound: CN(C/C=C/C1=CC=C(C=C1)Cl)CC2=CC=CC=C2N(CCO)S(=O)(=O)C3=CC=C(C=C3)OC [KN-93] + COc1cc2c(Oc3ccc(NC(=O)C4(C(=O)Nc5ccc(F)cc5)CC4)cc3F)ccnc2cc1OCCCN1CCOCC1 [Foretinib] (partner 0.25 µM)
Procedure, shortened: as §1

[5] = compound: CN(C/C=C/C1=CC=C(C=C1)Cl)CC2=CC=CC=C2N(CCO)S(=O)(=O)C3=CC=C(C=C3)OC [KN-93] + O=C(c1cc(Cc2n[nH]c(=O)c3ccccc23)ccc1F)N1CCN(C(=O)C2CC2)CC1 [Olaparib] (partner 8 µM)
Procedure, shortened: as §1

[6] = compound: CN(C/C=C/C1=CC=C(C=C1)Cl)CC2=CC=CC=C2N(CCO)S(=O)(=O)C3=CC=C(C=C3)OC [KN-93] + CS(=O)(=O)CCNCc1ccc(-c2ccc3ncnc(Nc4ccc(OCc5cccc(F)c5)c(Cl)c4)c3c2)o1 [Lapatinib] (partner 2 µM)
Procedure, shortened: as §1

[7] = compound: CN(C/C=C/C1=CC=C(C=C1)Cl)CC2=CC=CC=C2N(CCO)S(=O)(=O)C3=CC=C(C=C3)OC [KN-93] + CS(=O)(=O)N1CCN(Cc2cc3nc(-c4cccc5[nH]ncc45)nc(N4CCOCC4)c3s2)CC1 [Pictilisib] (partner 1 µM)
Procedure, shortened: as §1

[8] = compound: CN(C/C=C/C1=CC=C(C=C1)Cl)CC2=CC=CC=C2N(CCO)S(=O)(=O)C3=CC=C(C=C3)OC [KN-93] + Cc1nc(NC(=O)N2CCC[C@H]2C(N)=O)sc1-c1ccnc(C(C)(C)C(F)(F)F)c1 [Alpelisib] (partner 2 µM)
Procedure, shortened: as §1

[9] = compound: CN(C/C=C/C1=CC=C(C=C1)Cl)CC2=CC=CC=C2N(CCO)S(=O)(=O)C3=CC=C(C=C3)OC [KN-93] + CC(C)C[C@H](NC(=O)[C@H](Cc1ccccc1)NC(=O)c1cnccn1)B(O)O [Bortezomib] (partner 0.002 µM)
Procedure, shortened: as §1

[10] = compound: CN(C/C=C/C1=CC=C(C=C1)Cl)CC2=CC=CC=C2N(CCO)S(=O)(=O)C3=CC=C(C=C3)OC [KN-93] + C[C@]1(O)C[C@@H](c2nc(-c3ccc4ccc(-c5ccccc5)nc4c3)c3c(N)nccn32)C1 [Linsitinib] (partner 1 µM)
Procedure, shortened: as §1

What does the source list for Calu-6?
relative viability ([1]; 0.08 µM): 0.872; relative viability ([1]; 0.253 µM): 1.09; relative viability ([1]; 2.53 µM): 1.16; relative viability ([1]; 8 µM): 0.69; relative viability ([2]; first compound 0.08 µM): 0.805; relative viability ([2]; first compound 0.253 µM): 0.894; relative viability ([2]; first compound 2.53 µM): 0.951; relative viability ([2]; first compound 8 µM): 0.36; relative viability ([3]; first compound 0.08 µM): 0.638; relative viability ([3]; first compound 0.253 µM): 1.09; relative viability ([3]; first compound 2.53 µM): 0.786; relative viability ([3]; first compound 8 µM): 0.41; relative viability ([4]; first compound 0.08 µM): 0.861; relative viability ([4]; first compound 0.253 µM): 0.997; relative viability ([4]; first compound 2.53 µM): 0.882; relative viability ([4]; first compound 8 µM): 0.622; relative viability ([5]; first compound 0.08 µM): 0.503; relative viability ([5]; first compound 0.253 µM): 0.546; relative viability ([5]; first compound 2.53 µM): 0.699; relative viability ([5]; first compound 8 µM): 0.429; relative viability ([6]; first compound 0.08 µM): 0.932; relative viability ([6]; first compound 0.253 µM): 1.25; relative viability ([6]; first compound 2.53 µM): 1.37; relative viability ([6]; first compound 8 µM): 0.567; relative viability ([7]; first compound 0.253 µM): 1.06; relative viability ([7]; first compound 2.53 µM): 1.09; relative viability ([7]; first compound 8 µM): 0.454; relative viability ([8]; first compound 0.08 µM): 1.09; relative viability ([8]; first compound 0.253 µM): 1.12; relative viability ([8]; first compound 2.53 µM): 0.981; relative viability ([8]; first compound 8 µM): 0.644; relative viability ([9]; first compound 0.08 µM): 1.1; relative viability ([9]; first compound 0.253 µM): 1.05; relative viability ([9]; first compound 2.53 µM): 1.13; relative viability ([9]; first compound 8 µM): 0.633; relative viability ([10]; first compound 0.08 µM): 0.784; relative viability ([10]; first compound 0.253 µM): 1; relative viability ([10]; first compound 2.53 µM): 1.16; relative viability ([10]; first compound 8 µM): 0.904
